Test results taken from patent US12226424B2, “Target protein degradation compounds, their anti-tumor use, their intermediates and use of intermediates” (ShanghaiTech University, priority 2018, dated 2025).

Tests used:
Format in all cases: cell-based
SR cells = test: Half inhibitory concentration (IC50) on ALK-positive SR cell proliferation (CCK-8); conditions: Homo sapiens; SR cells, 72 h drug treatment, CCK-8; read-out: IC50 (nM)/ SR cell line
In short: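 SR cells seeded at 10,000 cells/well in RPMI1640 and treated with PROTAD compounds at 10 concentrations (top 10 μM, 5-fold dilutions) for 72 h at 37° C, 5% CO2. Viability read by CCK-8 (2 h) at OD450; DMSO as negative control.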

ALK protein [1] = target: T1, ALK protein (Homo sapiens, UniProt Q9UM73); test: Western-blot half degradation concentration (DC50) of ALK protein in SR cells; conditions: 24 h drug treatment; for DC50: read-out: DC50 (nM)/ SR cell line
Method: (§1) ALK-positive SR cells (human large cell immunoblastic lymphoma) were purchased from the American Type Culture Collection (ATCC); H3122 cells (human non-small cell lung cancer) were from the Shanghai University of Science and Technology Lin Haifan's research group.
(§2) The cells used in this present disclosure were cultured in a 37° C. incubator containing 5% CO2.
(§3) DC50 (drug concentration corresponding to protein degradation to 50%) calculation: according to the gray value of the corresponding Western blotting band after drug treatment, fitting the relationship curve between drug concentration and gray value to calculate the drug concentration range corresponding to half of the gray value.
Target sequence in this assay (Q9UM73 with tags, fused parts or gaps): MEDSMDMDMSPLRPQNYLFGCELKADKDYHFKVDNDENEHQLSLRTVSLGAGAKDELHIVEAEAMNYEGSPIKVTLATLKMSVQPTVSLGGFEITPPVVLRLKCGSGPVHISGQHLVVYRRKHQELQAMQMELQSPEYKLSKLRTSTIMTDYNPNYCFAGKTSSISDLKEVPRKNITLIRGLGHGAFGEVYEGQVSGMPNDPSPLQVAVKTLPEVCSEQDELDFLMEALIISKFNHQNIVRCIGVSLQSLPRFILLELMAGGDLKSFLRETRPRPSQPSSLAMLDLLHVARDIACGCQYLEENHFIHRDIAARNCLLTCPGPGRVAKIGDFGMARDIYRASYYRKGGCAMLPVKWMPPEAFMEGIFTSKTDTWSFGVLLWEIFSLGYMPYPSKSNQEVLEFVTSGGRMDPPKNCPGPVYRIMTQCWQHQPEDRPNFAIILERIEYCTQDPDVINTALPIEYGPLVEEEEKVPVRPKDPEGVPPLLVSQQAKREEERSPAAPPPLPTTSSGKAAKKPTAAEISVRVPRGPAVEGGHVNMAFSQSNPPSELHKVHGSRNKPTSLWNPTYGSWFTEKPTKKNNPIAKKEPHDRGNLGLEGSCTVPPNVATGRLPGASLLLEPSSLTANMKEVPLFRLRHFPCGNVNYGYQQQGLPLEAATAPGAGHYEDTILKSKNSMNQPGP

ALK protein [2] = target: T1, ALK protein; test: Western-blot half degradation concentration (DC50) of ALK protein in H3122 cells; conditions: 24 h drug treatment, read-out: DC50 (nM)/ H3122 cell line
Method: as §1, §2, §3
Target sequence in this assay (Q9UM73 with tags, fused parts or gaps): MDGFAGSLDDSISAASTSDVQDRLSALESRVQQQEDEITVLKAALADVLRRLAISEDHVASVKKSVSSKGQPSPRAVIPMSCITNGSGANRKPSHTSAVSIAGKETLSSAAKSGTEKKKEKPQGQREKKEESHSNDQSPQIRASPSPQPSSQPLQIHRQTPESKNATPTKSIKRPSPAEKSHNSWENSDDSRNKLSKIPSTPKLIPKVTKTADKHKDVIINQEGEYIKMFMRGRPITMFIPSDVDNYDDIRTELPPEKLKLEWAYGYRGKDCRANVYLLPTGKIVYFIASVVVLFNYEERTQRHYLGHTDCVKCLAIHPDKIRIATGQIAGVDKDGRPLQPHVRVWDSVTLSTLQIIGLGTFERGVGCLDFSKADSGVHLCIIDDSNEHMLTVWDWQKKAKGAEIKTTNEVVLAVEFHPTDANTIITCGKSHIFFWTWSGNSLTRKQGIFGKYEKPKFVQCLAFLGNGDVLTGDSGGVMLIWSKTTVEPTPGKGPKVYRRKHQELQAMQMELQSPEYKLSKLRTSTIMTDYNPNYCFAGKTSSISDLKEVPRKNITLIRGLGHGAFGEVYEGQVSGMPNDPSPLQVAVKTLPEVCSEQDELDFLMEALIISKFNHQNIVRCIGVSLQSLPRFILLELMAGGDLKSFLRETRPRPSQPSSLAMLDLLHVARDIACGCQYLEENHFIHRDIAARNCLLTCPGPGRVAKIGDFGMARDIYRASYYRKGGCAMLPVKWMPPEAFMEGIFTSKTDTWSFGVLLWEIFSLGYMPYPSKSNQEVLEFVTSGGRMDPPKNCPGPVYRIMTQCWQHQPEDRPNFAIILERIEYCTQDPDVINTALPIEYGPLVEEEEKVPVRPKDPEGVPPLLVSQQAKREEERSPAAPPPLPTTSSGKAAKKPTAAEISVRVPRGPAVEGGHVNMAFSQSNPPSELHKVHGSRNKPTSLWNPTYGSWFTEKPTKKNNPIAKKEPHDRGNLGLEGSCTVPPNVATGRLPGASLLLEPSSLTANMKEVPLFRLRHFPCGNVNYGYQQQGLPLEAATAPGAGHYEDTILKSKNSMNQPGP

| Compound | DC50 (ALK protein [1]) [nM] | DC50 (ALK protein [2]) [nM] | DC50 (nM)/ SR cell line (ALK protein [1]) | IC50 (SR cells) [nM] |
| --- | --- | --- | --- | --- |
| COc1cc(N2CCC(N3CCN(C(=O)CSc4cccc5c4C(=O)N(C4CCC(=O)NC4=O)C5=O)CC3)CC2)ccc1Nc1ncc(Cl)c(Nc2ccccc2P(C)(C)=O)n1 (stereo not shown) [SIAIS164062, 4-((2-(4-(1-(4-((5-chloro-4-((2-(dimethylphosphoryl)phenyl)amino)pyrimidin-2-yl)amino)-3-methoxyphenyl)piperidin-4-yl)piperazin-1-yl)-2-oxoethyl)thio)-2-(2,6-dioxopiperidin-3-yl)isoindoline-1,3-dione] | 6 | 13 |  | 11.6 ± 6.2 |
| COc1cc(N2CCC(N3CCN(C(=O)CCCSc4cccc5c4C(=O)N(C4CCC(=O)NC4=O)C5=O)CC3)CC2)ccc1Nc1ncc(Cl)c(Nc2ccccc2P(C)(C)=O)n1 (stereo not shown) [SIAIS164064, 4-((4-(4-(1-(4-((5-chloro-4-((2-(dimethylphosphoryl)phenyl)amino)pyrimidin-2-yl)amino)-3-methoxyphenyl)piperidin-4-yl)piperazin-1-yl)-4-oxobutyl)thio)-2-(2,6-dioxopiperidin-3-yl)isoindoline-1,3-dione] | 1.1 | 49 |  | 4.4 ± 2.5 |
| COc1cc(N2CCC(N3CCN(C(=O)CCCCCSc4cccc5c4C(=O)N(C4CCC(=O)NC4=O)C5=O)CC3)CC2)ccc1Nc1ncc(Cl)c(Nc2ccccc2P(C)(C)=O)n1 (stereo not shown) [SIAIS164065, 4-((6-(4-(1-(4-((5-chloro-4-((2-(dimethylphosphoryl)phenyl)amino)pyrimidin-2-yl)amino)-3-methoxyphenyl)piperidin-4-yl)piperazin-1-yl)-6-oxohexyl)thio)-2-(2,6-dioxopiperidin-3-yl)isoindoline-1,3-dione] | 5.2 | 173 |  | 2.9 ± 2.7 |
| COc1cc(N2CCC(N3CCN(C(=O)CCCCSc4cccc5c4C(=O)N(C4CCC(=O)NC4=O)C5=O)CC3)CC2)ccc1Nc1ncc(Cl)c(Nc2ccccc2P(C)(C)=O)n1 (stereo not shown) [SIAIS164066, 4-((5-(4-(1-(4-((5-chloro-4-((2-(dimethylphosphoryl)phenyl)amino)pyrimidin-2-yl)amino)-3-methoxyphenyl)piperidin-4-yl)piperazin-1-yl)-5-oxopentyl)thio)-2-(2,6-dioxopiperidin-3-yl)isoindoline-1,3-dione] | 5.6 | 11 |  | 4.2 ± 2.9 |
| COc1cc(N2CCC(N3CCN(C(=O)CCCCCCSc4cccc5c4C(=O)N(C4CCC(=O)NC4=O)C5=O)CC3)CC2)ccc1Nc1ncc(Cl)c(Nc2ccccc2P(C)(C)=O)n1 (stereo not shown) [SIAIS164067, 4-((7-(4-(1-(4-((5-chloro-4-((2-(dimethylphosphoryl)phenyl)amino)pyrimidin-2-yl)amino)-3-methoxyphenyl)piperidin-4-yl)piperazin-1-yl)-7-oxoheptyl)thio)-2-(2,6-dioxopiperidin-3-yl)isoindoline-1,3-dione] | 4.1 | 11 |  | 5.7 ± 3.9 |
| COc1cc(N2CCC(N3CCN(C(=O)CCCCSc4cccc5c4CN(C4CCC(=O)NC4=O)C5=O)CC3)CC2)ccc1Nc1ncc(Cl)c(Nc2ccccc2P(C)(C)=O)n1 (stereo not shown) [SIAIS219070, 3-(4-((5-(4-(1-(4-((5-chloro-4-((2-(dimethylphosphoryl)phenyl)amino)pyrimidin-2-yl)amino)-3-methoxyphenyl)piperidin-4-yl)piperazin-1-yl)-5-oxopentyl)thio)-1-oxoisoindolin-2-yl)piperidine-2,6-dione] | 0.1 to 10 |  |  | 0.5 ± 0.3 |
| COc1cc(N2CCC(N3CCN(C(=O)CCCCCSc4cccc5c4CN(C4CCC(=O)NC4=O)C5=O)CC3)CC2)ccc1Nc1ncc(Cl)c(Nc2ccccc2P(C)(C)=O)n1 (stereo not shown) [SIAIS219071, 3-(4-((6-(4-(1-(4-((5-chloro-4-((2-(dimethylphosphoryl)phenyl)amino)pyrimidin-2-yl)amino)-3-methoxyphenyl)piperidin-4-yl)piperazin-1-yl)-6-oxohexyl)thio)-1-oxoisoindolin-2-yl)piperidine-2,6-dione] |  |  | 0.01~10 nM | 0.6 ± 0.4 |
| COc1cc(N2CCC(N3CCN(C(=O)CCCCCCSc4cccc5c4CN(C4CCC(=O)NC4=O)C5=O)CC3)CC2)ccc1Nc1ncc(Cl)c(Nc2ccccc2P(C)(C)=O)n1 (stereo not shown) [SIAIS219072, 3-(4-((7-(4-(1-(4-((5-chloro-4-((2-(dimethylphosphoryl)phenyl)amino)pyrimidin-2-yl)amino)-3-methoxyphenyl)piperidin-4-yl)piperazin-1-yl)-7-oxoheptyl)thio)-1-oxoisoindolin-2-yl)piperidine-2,6-dione] | 0.1 to 10 |  |  | 0.8 ± 0.5 |
| COc1cc(N2CCN(C(=O)CCCCCSc3cccc4c3C(=O)N(C3CCC(=O)NC3=O)C4=O)CC2)ccc1Nc1ncc(Cl)c(Nc2ccccc2P(C)(C)=O)n1 (stereo not shown) [SIAIS1197121, 4-((6-(4-(4-((5-chloro-4-((2-(dimethylphosphoryl)phenyl)amino)pyrimidin-2-yl)amino)-3-methoxyphenyl)piperazin-1-yl)-6-oxohexyl)thio)-2-(2,6-dioxopiperidin-3-yl)isoindoline-1,3-dione] | 50 to 500 | 500 |  | 7.4 ± 4.8 |

The next lines start with results.

| DC50 (ALK protein [1]) [nM] | DC50 (ALK protein [2]) [nM] | DC50 (nM)/ SR cell line (ALK protein [1]) | Compound | IC50 (SR cells) [nM] |
| --- | --- | --- | --- | --- |
| 500 | 500 |  | COc1cc(N2CCC(N3CCN(C(=O)CCSc4cccc5c4C(=O)N(C4CCC(=O)NC4=O)C5=O)CC3)CC2)ccc1Nc1ncc(Cl)c(Nc2ccccc2P(C)(C)=O)n1 (stereo not shown) [SIAIS164063, 4-((3-(4-(1-(4-((5-chloro-4-((2-(dimethylphosphoryl)phenyl)amino)pyrimidin-2-yl)amino)-3-methoxyphenyl)piperidin-4-yl)piperazin-1-yl)-3-oxopropyl)thio)-2-(2,6-dioxopiperidin-3-yl)isoindoline-1,3-dione] | 15.7 ± 9.8 |
| 1 to 50 | 50 |  | COc1cc(N2CCC(NC(=O)CCCCCSc3cccc4c3C(=O)N(C3CCC(=O)NC3=O)C4=O)CC2)ccc1Nc1ncc(Cl)c(Nc2ccccc2P(C)(C)=O)n1 (stereo not shown) [SIAIS164141, N-(1-(4-((5-chloro-4-((2-(dimethylphosphoryl)phenyl)amino)pyrimidin-2-yl)amino)-3-methoxyphenyl)piperidin-4-yl)-6-((2-(2,6-dioxopiperidin-3-yl)-1,3-dioxoisoindolin-4-yl)thio)hexanamide] | 3.2 ± 2.4 |
| 0.1 to 10 |  |  | COc1cc(N2CCC(N3CCN(C(=O)CCCSc4cccc5c4CN(C4CCC(=O)NC4=O)C5=O)CC3)CC2)ccc1Nc1ncc(Cl)c(Nc2ccccc2P(C)(C)=O)n1 (stereo not shown) [SIAIS219069, 3-(4-((4-(4-(1-(4-((5-chloro-4-((2-(dimethylphosphoryl)phenyl)amino)pyrimidin-2-yl)amino)-3-methoxyphenyl)piperidin-4-yl)piperazin-1-yl)-4-oxobutyl)thio)-1-oxoisoindolin-2-yl)piperidine-2,6-dione] | 0.7 ± 0.3 |
| 0.1 to 1 |  |  | COc1cc(N2CCC(N3CCN(CCCCCCSc4cccc5c4CN(C4CCC(=O)NC4=O)C5=O)CC3)CC2)ccc1Nc1ncc(Cl)c(Nc2ccccc2P(C)(C)=O)n1 (stereo not shown) [SIAIS219098, 3-(4-((6-(4-(1-(4-((5-chloro-4-((2-(dimethylphosphoryl)phenyl)amino)pyrimidin-2-yl)amino)-3-methoxyphenyl)piperidin-4-yl)piperazin-1-yl)hexyl)thio)-1-oxoisoindolin-2-yl)piperidine-2,6-dione] | 0.7 ± 0.2 |
